Reference: patent US9469650B2, “Melampomagnolide B derivatives” (BOARD OF TRUSTEES OF THE UNIVERSITY OF ARKANSAS, priority 2013, dated 2016)

Columns and labels:
[1] = test system: M14; test: panel of 60 human tumor cell lines, growth inhibition (Melanoma); details: Homo sapiens
[2] = test system: MDA-MB-435; test: as above; details: Homo sapiens
[3] = test system: SK-MEL-2; test: as above; details: Homo sapiens
[4] = test system: SK-MEL-5; test: as above; details: Homo sapiens
[5] = test system: SF-268; test: panel of 60 human tumor cell lines, growth inhibition (CNS Cancer); details: Homo sapiens
[6] = test system: HCT-15; test: panel of 60 human tumor cell lines, growth inhibition (Colon Cancer); details: Homo sapiens
[7] = test system: ACHN; test: panel of 60 human tumor cell lines, growth inhibition (Renal Cancer); details: Homo sapiens
[8] = test system: SN12C; test: as above; details: Homo sapiens
[9] = test system: TK-10; test: as above; details: Homo sapiens; for GI50: TK-10, TK-10
[10] = test system: MCF7; test: panel of 60 human tumor cell lines, growth inhibition (Breast Cancer); details: Homo sapiens; for GI50: MCF7, MCF7
[11] = test system: MDA-MB-231/ATCC; test: as above; details: Homo sapiens
[12] = test system: HS 578T; test: as above; details: Homo sapiens, Hs-578T
[13] = test system: BT-549; test: as above; details: Homo sapiens
[14] = test system: IGROV1; test: panel of 60 human tumor cell lines, growth inhibition (Ovarian Cancer); details: Homo sapiens
[15] = test system: OVCAR-8; test: as above; details: Homo sapiens
[16] = test system: A549/ATCC; test: panel of 60 human tumor cell lines, growth inhibition (Non-Small Cell Lung Cancer); details: Homo sapiens
[17] = test system: NCI-H226; test: as above; details: Homo sapiens
[18] = test system: NCI-H460; test: as above; details: Homo sapiens

Work on C=C1C(=O)O[C@H]2[C@H]1CC/C(COC(=O)Nc1n[nH]c(SC)n1)=C\CC[C@@]1(C)O[C@@H]21 [JVM 64, ((1aR,7aS,10aS,10bS,E)-1a-methyl-8-methylene-9-oxo-1a,2,3,6,7,7a,8,9,10a,10b-decahydrooxireno[2′,3′:9,10]cyclodeca[1,2-b]furan-5-yl)methyl-(5-(methylthio)-1H-1,2,4-triazol-3-yl)carbamate] yielded a GI50 ([1]; M14) of 1.59 µM, a CC50 ([1]; M14, read-out: LC50) of 7.09 µM and an IC (TGI) ([1]; M14, read-out: TGI) of 3.36 µM. It also gave a GI50 ([2]; MDA-MB-435) of 2.24 µM, a CC50 ([2]; MDA-MB-435, read-out: LC50) of 74.8 µM and an IC (TGI) ([2]; MDA-MB-435, read-out: TGI) of 7.13 µM. For the same compound, the GI50 ([3]; SK-MEL-2) was 3.56 µM, the CC50 ([3]; SK-MEL-2, read-out: LC50) was 62.2 µM and the IC (TGI) ([3]; SK-MEL-2, read-out: TGI) was 13.1 µM. The GI50 ([4]; SK-MEL-5) was 3.13 µM, the CC50 ([4]; SK-MEL-5, read-out: LC50) was 37.5 µM and the IC (TGI) ([4]; SK-MEL-5, read-out: TGI) was 12.4 µM. For the same compound, the GI50 ([5]; SF-268) was 3.73 µM, the CC50 ([5]; SF-268, read-out: LC50) was 52.6 µM and the IC (TGI) ([5]; SF-268, read-out: TGI) was 14.7 µM. For the same compound, the GI50 ([6]; HCT-15) was 2.4 µM, the CC50 ([6]; HCT-15, read-out: LC50) was 38 µM and the IC (TGI) ([6]; HCT-15, read-out: TGI) was 9.05 µM. It also gave a GI50 [7] of 1.75 µM, a CC50 ([7]; read-out: LC50) of 17.8 µM and an IC (TGI) ([7]; read-out: TGI) of 4.89 µM. For the same compound, the GI50 [8] was 2.9 µM, the CC50 ([8]; read-out: LC50) was 44.6 µM and the IC (TGI) ([8]; read-out: TGI) was 10.7 µM. For the same compound, the GI50 ([9]; 5-dose assay) was 2.51 µM, the GI50 ([9]; NCI five dose) was 2.51 µM and the CC50 ([9]; TK-10, read-out: LC50) was 27.4 µM. The IC (TGI) ([9]; TK-10, read-out: TGI) was 7.16 µM, the GI50 ([10]; 5-dose assay) was 1.33 µM and the GI50 ([10]; NCI five dose) was 1.33 µM. For the same compound, the CC50 ([10]; MCF7, read-out: LC50) was 70.2 µM, the IC (TGI) ([10]; MCF7, read-out: TGI) was 10.5 µM and the GI50 ([11]; MDA-MB-231) was 2.93 µM. For the same compound, the CC50 ([11]; MDA-MB-231, read-out: LC50) was 37.7 µM, the IC (TGI) ([11]; MDA-MB-231, read-out: TGI) was 9.22 µM and the GI50 [12] was 2.44 µM. The CC50 ([12]; read-out: LC50) was greater than 100 µM, the IC (TGI) ([12]; read-out: TGI) was 8.75 µM and the GI50 ([13]; BT-549) was 1.47 µM. It also gave a CC50 ([13]; BT-549, read-out: LC50) of 6.24 µM, an IC (TGI) ([13]; BT-549, read-out: TGI) of 3.83 µM and a GI50 ([14]; IGROV-1) of 3.66 µM. The CC50 ([14]; IGROV-1, read-out: LC50) was 57.8 µM, the IC (TGI) ([14]; IGROV-1, read-out: TGI) was 14.2 µM and the GI50 ([15]; OVCAR-8) was 2.71 µM. It also gave a CC50 ([15]; OVCAR-8, read-out: LC50) of 51.6 µM, an IC (TGI) ([15]; OVCAR-8, read-out: TGI) of 12.1 µM and a GI50 ([16]; A549) of 4.19 µM. The CC50 ([16]; A549, read-out: LC50) was 83.5 µM, the IC (TGI) ([16]; A549, read-out: TGI) was 19.9 µM and the GI50 ([17]; NCI-H226) was 10.2 µM. The CC50 ([17]; NCI-H226, read-out: LC50) was 99.7 µM, the IC (TGI) ([17]; NCI-H226, read-out: TGI) was 31.9 µM and the GI50 ([18]; NCI-H460) was 4.03 µM. The CC50 ([18]; NCI-H460, read-out: LC50) was greater than 100 µM and the IC (TGI) ([18]; NCI-H460, read-out: TGI) was 18.9 µM.
